≈ marks a conversion by molar mass, not a printed value. Where “and” joins values, the source holds several entries; their conditions need not be identical. Identical values can stand only once.
How the values were obtained:
[1] = human, in vivo, po
Protocol: (§1) Indwelling catheters were placed into the arms of test subjects. A single 100 mg dose of stable-labeled (non-radioactive) CBZ (SL-CBZ) was then infused over 10 minutes. At the end of the infusion, the subject's usual morning dose of oral CBZ, less 100 mg, was administered. Blood pressure, heart rate and rhythm, and infusion site discomfort were monitored during and for an hour after the infusion. […] Unbound CBZ was measured following ultrafiltration. CBZ concentration-time data were analyzed using a non-compartmental approach with the pharmacokinetic software, WinNONLIN.
(§2) A validated LC-MS assay for SL-CBZ, CBZ and their respective epoxide metabolites was used. […] CBZ was assayed similar to that described by Osterloh and Bertilsson. […] After shaking and centrifugation, the organic layer was removed and evaporated under nitrogen gas to dryness. Each sample was then redissolved with the addition of 25 microliters of ethyl acetate. Plasma samples were measured for unbound and total CBZ, CBZ glucuronide and CBZ-E by LCMS. Unbound drug was separated from the bound fraction by ultrafiltration. The mobile phase consists of 50% 0.05 M ammonium acetate buffer, pH 4.7, 50% MeOH at a flow rate of 0.4 ml/min, on a reverse phase C-18 column.

[2] = clinical; conditions: human, in vivo
Protocol: as §1, §2

[3] = Estimated dissociation of CBZ from the inclusion complex on dilution in blood; conditions: based on simulations of dilution effects; assumes no interaction from endogenous agents
Description: These relatively weak associations are within the range (100-20,000 M^−1) of those commonly seen with drug: cyclodextrin complexes (Crit. Rev. Ther. Drug Carrier Systems, 14 (1): 1-104, 1997).
The minimal volume of distribution of a drug administered intravenously is based on the plasma volume, which is approximately 5% of the body weight. Therefore, in a 70 kg subject, the plasma volume is approximately 3.5 L. Alternatively, one could assume that the volume of distribution is extracellular water, accounting for approximately 30% of the total body weight, in which case the volume of distribution is about 21 L.
If a 20 mL dose were administered, the dilution ranges from 175-1,050-fold.
Based on the simulations of dilution effects, it appears that 70-95% of the CBZ will immediately dissociate from the inclusion complex in the blood if one assumes no interaction from endogenous agents.

[4] = Phase solubility of CBZ in aqueous Captisol and aqueous Cavitron; format: physicochemical; conditions: for Measured CBZ conc: ambient laboratory temperature
Protocol: The percent weight/volume cyclodextrin solutions were prepared by adding the appropriate amount of cyclodextrin to a flask and filling to the desired total volume (10 mL) with water, as shown in the following Table 4. An excess of carbamazepine was added to each eppendorf tube. Appropriate vehicles were added to each tube and the final volumes were 1 mL. The solubility of CBZ was determined at ambient laboratory temperatures in various concentrations of aqueous Captisol and aqueous Cavitron (brand names of modified cyclodextrins useful in the present invention). The drug substance was added to a microcentrifuge tube and the appropriate vehicle was added. Periodically, the samples were centrifuged and then an aliquot was removed from the supernatant, diluted as necessary and assayed by HPLC to determine the concentration. The phase solubility was evaluated at least three times during each experiment to insure that the mixture achieved equilibrium. […] The solubilities reported in Table 5 are the average of two or three concentration determinations obtained during the respective time course.

[5] = Steady-state trough concentrations, oral observed vs IV predicted by the method of superposition; format: in vivo, human
Protocol: The most relevant factor in considering the dose adjustment for intravenously administered CBZ is for treatment centers to maintain plasma concentrations of CBZ above the therapeutic threshold. Following administration of 100 mg of IV CBZ, observed plasma concentrations followed a […] decay indicating a very fast distribution to tissues followed by a slower elimination of drug out of the body. Steady-state plasma concentrations of IV CBZ were predicted using the method of superposition. Plasma concentrations following a single dose of IV CBZ were scaled-up to steady-state conditions, assuming linear pharmacokinetics, using an accumulation ratio, a mean F of 0.7, and correcting for dose (see Equations 1 and 2). As a result, this calculation allows for a comparison of steady-state trough plasma concentrations following oral (Co and IV (C6 hr) administration of CBZ respectively assuming a dosing interval of once every six hours for the IV formulation.
[formula] Where Cpss(IV) is the plasma concentration (C) at steady state for IV administration; CpsD is the plasma concentration after a single dose; Int is the y-intercept resulting from linear regression of the elimination phase; λ is the terminal elimination rate constant; Dpo is the total oral daily dose; DIV is the single IV dose; F is the absolute bioavailability; T is the dosing interval; and t is the time of each observed concentration.

NC(=O)N1c2ccccc2C=Cc2ccccc21 [Carbamazepine, 5H-dibenz[b,f]azepine-5-carboxamide]
calculated mean F value [1]: 75% | median F value [1]: 67% | AUC ([2]; iv, 100 mg, AUC 0-° o): 36500 ng·h/mL | clearance ([2]; iv, CL): 0.6 mL/min/kg | AUC ([2]; po, AUCss (po)): 87200 ng·h/mL | bioavailability ([2]; po, absolute bioavailability of oral CBZ during maintenance therapy centers around): 70 to 75% | bioavailability ([2]; po, average oral bioavailability): 65 to 75% | CBZ that will immediately dissociate from the inclusion complex in the blood [3]: 70-95% | Measured CBZ conc ([4]; Captisol 0% w/v, CBZ source Orgamol): 0.2 mg/mL | Measured CBZ conc ([4]; Captisol 0% w/v, CBZ source Spectrum): 0.2 mg/mL | Measured CBZ conc, Ave ([4]; Captisol 0% w/v, average of the three determinations): 0.2 mg/mL | Measured CBZ conc ([4]; Captisol 5% w/v, CBZ source Orgamol, listed as CBZ): 2.2 mg/mL and 2.4 mg/mL | Measured CBZ conc ([4]; Captisol 5% w/v, CBZ source Spectrum): 2.4 mg/mL | Measured CBZ conc, Ave ([4]; Captisol 5% w/v, average of the three determinations): 2.3 mg/mL | Measured CBZ conc ([4]; Captisol 10% w/v, CBZ source Orgamol, listed as CBZ): 4.1 mg/mL and 4.6 mg/mL | Measured CBZ conc ([4]; Captisol 10% w/v, CBZ source Spectrum): 6.2 mg/mL | Measured CBZ conc, Ave ([4]; Captisol 10% w/v, average of the three determinations): 5.0 mg/mL | Measured CBZ conc ([4]; Captisol 15% w/v, CBZ source Orgamol, listed as CBZ): 6.4 mg/mL and 7.7 mg/mL | Measured CBZ conc ([4]; Captisol 15% w/v, CBZ source Spectrum): 6.9 mg/mL | Measured CBZ conc, Ave ([4]; Captisol 15% w/v, average of the three determinations): 7.0 mg/mL | Measured CBZ conc ([4]; Captisol 20% w/v, CBZ source Orgamol, listed as CBZ): 9.2 mg/mL and 10.3 mg/mL | Measured CBZ conc ([4]; Captisol 20% w/v, CBZ source Spectrum): 9.4 mg/mL | Measured CBZ conc, Ave ([4]; Captisol 20% w/v, average of the three determinations): 9.6 mg/mL | Measured CBZ conc ([4]; Captisol 25% w/v, CBZ source Orgamol, listed as CBZ): 11.4 mg/mL and 12.3 mg/mL | Measured CBZ conc ([4]; Captisol 25% w/v, CBZ source Spectrum): 11.8 mg/mL | Measured CBZ conc, Ave ([4]; Captisol 25% w/v, average of the three determinations): 11.8 mg/mL | Measured CBZ conc ([4]; Captisol 30% w/v, CBZ source Orgamol, listed as CBZ): 13.5 mg/mL and 15.2 mg/mL | Measured CBZ conc ([4]; Captisol 30% w/v, CBZ source Spectrum): 14.6 mg/mL | Measured CBZ conc, Ave ([4]; Captisol 30% w/v, average of the three determinations): 14.4 mg/mL | Measured CBZ conc ([4]; Captisol 35% w/v, CBZ source Orgamol, listed as CBZ): 15.9 mg/mL and 18.4 mg/mL | Measured CBZ conc ([4]; Captisol 35% w/v, CBZ source Spectrum): 16.3 mg/mL | Measured CBZ conc, Ave ([4]; Captisol 35% w/v, average of the three determinations): 16.9 mg/mL | Measured CBZ conc ([4]; Captisol 40% w/v, CBZ source Orgamol, listed as CBZ): 18.3 mg/mL and 20.8 mg/mL | Measured CBZ conc ([4]; Captisol 40% w/v, CBZ source Spectrum): 19.3 mg/mL | Measured CBZ conc, Ave ([4]; Captisol 40% w/v, average of the three determinations): 19.5 mg/mL | Measured CBZ conc ([4]; Captisol 45% w/v, CBZ source Orgamol, listed as CBZ): 20.6 mg/mL and 22.5 mg/mL | Measured CBZ conc ([4]; Captisol 45% w/v, CBZ source Spectrum): 21.8 mg/mL | Measured CBZ conc, Ave ([4]; Captisol 45% w/v, average of the three determinations): 21.6 mg/mL | Measured CBZ conc ([4]; Captisol 50% w/v, CBZ source Orgamol, listed as CBZ): 22.5 mg/mL and 24.8 mg/mL | Measured CBZ conc ([4]; Captisol 50% w/v, CBZ source Spectrum): 26.6 mg/mL | Measured CBZ conc, Ave ([4]; Captisol 50% w/v, average of the three determinations): 24.6 mg/mL | Measured CBZ conc ([4]; Cavitron 0% w/v, CBZ source Orgamol): 0.2 mg/mL | Measured CBZ conc ([4]; Cavitron 0% w/v, CBZ source Spectrum): 0.3 mg/mL | Measured CBZ conc ([4]; Cavitron 5% w/v, CBZ source Orgamol, listed as CBZ): 2.7 mg/mL and 3.0 mg/mL | Measured CBZ conc ([4]; Cavitron 5% w/v, CBZ source Spectrum): 3.8 mg/mL | Measured CBZ conc, Ave ([4]; Cavitron 5% w/v, average of the three determinations): 3.2 mg/mL | Measured CBZ conc ([4]; Cavitron 10% w/v, CBZ source Orgamol, listed as CBZ): 5.4 mg/mL and 5.6 mg/mL | Measured CBZ conc ([4]; Cavitron 10% w/v, CBZ source Spectrum): 4.1 mg/mL | Measured CBZ conc, Ave ([4]; Cavitron 10% w/v, average of the three determinations): 5.0 mg/mL | Measured CBZ conc ([4]; Cavitron 15% w/v, CBZ source Orgamol, listed as CBZ): 8.2 mg/mL and 8.4 mg/mL | Measured CBZ conc ([4]; Cavitron 15% w/v, CBZ source Spectrum): 12.3 mg/mL | Measured CBZ conc, Ave ([4]; Cavitron 15% w/v, average of the three determinations): 9.6 mg/mL | Measured CBZ conc ([4]; Cavitron 20% w/v, CBZ source Orgamol, listed as CBZ): 10.9 mg/mL and 11.1 mg/mL | Measured CBZ conc ([4]; Cavitron 20% w/v, CBZ source Spectrum): 16.4 mg/mL | Measured CBZ conc, Ave ([4]; Cavitron 20% w/v, average of the three determinations): 12.8 mg/mL | Measured CBZ conc ([4]; Cavitron 25% w/v, CBZ source Orgamol, listed as CBZ): 14.0 mg/mL and 14.3 mg/mL | Measured CBZ conc ([4]; Cavitron 25% w/v, CBZ source Spectrum): 14.8 mg/mL | Measured CBZ conc, Ave ([4]; Cavitron 25% w/v, average of the three determinations): 14.4 mg/mL | Measured CBZ conc ([4]; Cavitron 30% w/v, CBZ source Orgamol, listed as CBZ): 15.9 mg/mL and 16.2 mg/mL | Measured CBZ conc ([4]; Cavitron 30% w/v, CBZ source Spectrum): 17.9 mg/mL | Measured CBZ conc, Ave ([4]; Cavitron 30% w/v, average of the three determinations): 16.7 mg/mL | Measured CBZ conc ([4]; Cavitron 35% w/v, CBZ source Orgamol, listed as CBZ): 18.1 mg/mL and 19.9 mg/mL | Measured CBZ conc ([4]; Cavitron 35% w/v, CBZ source Spectrum): 20.7 mg/mL | Measured CBZ conc, Ave ([4]; Cavitron 35% w/v, average of the three determinations): 19.6 mg/mL | Measured CBZ conc ([4]; Cavitron 40% w/v, CBZ source Orgamol, listed as CBZ): 22.5 mg/mL and 22.0 mg/mL | Measured CBZ conc ([4]; Cavitron 40% w/v, CBZ source Spectrum): 23.2 mg/mL | Measured CBZ conc, Ave ([4]; Cavitron 40% w/v, average of the three determinations): 22.6 mg/mL | Measured CBZ conc ([4]; Cavitron 45% w/v, CBZ source Orgamol, listed as CBZ): 25.5 mg/mL and 25.7 mg/mL | Measured CBZ conc ([4]; Cavitron 45% w/v, CBZ source Spectrum): 27.3 mg/mL | Measured CBZ conc, Ave ([4]; Cavitron 45% w/v, average of the three determinations): 26.2 mg/mL | Measured CBZ conc ([4]; Cavitron 50% w/v, CBZ source Orgamol, listed as CBZ): 27.8 mg/mL and 28.0 mg/mL | Measured CBZ conc ([4]; Cavitron 50% w/v, CBZ source Spectrum): 31.5 mg/mL | Measured CBZ conc, Ave ([4]; Cavitron 50% w/v, average of the three determinations): 29.1 mg/mL | solubility thermodynamic ([4]; aqueous Cavitron, water, thermodynamic from solid, Cavitron 0% w/v, average of the three determinations, read-out: Measured CBZ conc, Ave): 200 µg/mL (≈ 846 µM) | CBZ solubility in Cavitron as compared to Captisol ([4]; at most cyclodextrin concentrations, FIG. 1A): marginally improved in Cavitron | statistical comparison of trough values following oral and IV administration ([5]; 6-hour time-point, α=0.10, p=0.1931): not statistically different | statistical comparison of trough values following oral and IV administration ([5]; 12-hour time-point, post-dose): significantly different | Difference Between the Means ([5]; Co (oral only) vs C6 hr (IV only), N=62): 0.09456 | concentration at 6 h ([5]; human, plasma, 100 mg, predicted by superposition, IV every six hours, mean F=0.70, N=62, read-out: C6 hr (IV only), mean steady-state plasma concentration at the 6-hour time-point): 8040 ng/mL | Co (oral only), mean oral steady-state trough plasma concentration ([5]; observed, oral twice daily dosing, n=62 evaluable subjects): 8.98 µg/mL

Reference: US9770407B2 (Lundbeck Pharmaceuticals LLC, priority 2005, dated 2017)
